The subject of assay [1] is GL261 cells. Kind of assay: Cell viability (CCK-8 assay) in GL261. Format: cell-based, mouse. The following applies: GL261, treated for 96 h. On the procedure:
U251MG, GL261, or U87MG cells were seeded onto 96-well plates at a density of 2 × 10^3 cells/well with DMEM supplemented with 10% FBS and then incubated for 24 h, after which the culture medium was changed to DMEM containing 10% FBS. Then, astaxanthin, adonixanthin or temozolomide (Tokyo Chemical Industry Co., Ltd., Tokyo, Japan) were added to the culture. Cell proliferation was determined using the CCK-8 assay according to the manufacturer’s instructions (Dojindo, Kumamoto, Japan). After each incubation, 10 μL of CCK-8 solution were added to each well. Plates were incubated for 3 h for 37 °C, and the absorbance was read at 450 nm with a reference wavelength of 630 nm using a Varioscan Flash 2.4 microplate reader (Thermo Fisher Scientific, Waltham, MA, USA).

The test system of assay [2] is U251MG cells. Kind of assay: Wound healing (cell migration) assay in U251MG. The following applies: 10 µM, 48 h. It is filed as cell-based, human. As to the method: The cell migration assay was conducted as previously described. GL261 cells and U251 cells (2.0 × 10^4 cells per well) were plated in a 12-well plate (BD Biosciences, Tokyo, Japan) with culture medium supplemented with 10% FBS. After 24 h of incubation, the medium was changed to DMEM containing 1% FBS. After 6 h, wounds were scratched by a P1000 pipette tip and washed with phosphate-buffered saline (PBS) to eliminate cell debris. Then, fresh medium was added with 10 µM astaxanthin or adonixanthin. Pictures were taken at 48 h and these scratched areas were measured using an All-in-One Fluorescence Microscope (BZ-X710; Keyence, Osaka, Japan). The cell migration rate was measured the area of the wound before migration (S0) and after migration (S1) and calculated […]. The control group was then standardized to be 100%. Wound widths at 0 h were created within 1 to 1.5 mm and data were excluded if they were not suitable for that width.

Assay [3] has as its system p38 mitogen-activated protein kinase. As to the kind of experiment: Immunoblotting, phosphorylation of p38 MAPK in GL261. Format: cell-based, mouse. The following applies: GL261, 10 µM, 48 h. On the procedure:
(§1) GL261 cell was seeded at 2.5 × 10^4 cells per well in 24-well plates with culture medium supplemented with 10% FBS. After 24 h of incubation, the medium was changed to DMEM containing 10% FBS and 0.1%DMSO PBS, 300 μM temozolomide, 10 μM astaxanthin, or 10 μM adonixanthin was added for 6 and 48 h. Cells were lysed in a special buffer (RIPA buffer R0278; Sigma-Aldrich, St. Louis, MO, USA) with a protease inhibitor cocktail (Sigma-Aldrich), phosphatase inhibitor cocktails 2 and 3 (Sigma-Aldrich), and sample buffer (Wako, Osaka, Japan). The protein concentration was determined by comparison with a known concentration of bovine serum albumin using the BCA Protein Assay Kit (Thermo Fisher Scientific). The amount of total protein was 2 μg. […] The band intensity was […] using an Immuno Star LD (Wako). Band intensity was measured using an LAS-4000 UV mini Luminescent Image Analyzer (Fujifilm, Tokyo Japan) and Multi Gauge Version 3.0 (Fujifilm). The phosphorylation of ERK1/2, Akt, and p38 MAPK was measured by normalizing against total ERK1/2, total Akt, and total p38 MAPK. […]

The test system of assay [4] is MMP-2. As to the kind of experiment: Immunoblotting, MMP-2 expression in GL261. Format: cell-based, mouse. The note with it: GL261, 10 µM, 48 h. On the procedure:
as §1

Assay [5] concerns Bcl-2. As to the kind of experiment: Immunoblotting, Bcl-2 expression in GL261. It is filed as cell-based, mouse. The note with it: GL261, 10 µM, 48 h. As to the method: as §1, with “μg. Equal amounts of protein in sample buffer containing 10% 2-mercaptoethanol were subjected to sodium dodecyl sulphate polyacrylamide gel electrophoresis (SDS-PAGE) in 5-20% gradient gels (SuperSep Ace; Wako), and the separated proteins were transferred to polyvinylidene difluoride membrane (Immobilon-P; Merck Millipore Corporation, Bedford, MA, USA). After blocking for 30 min with Blocking One-P (Nacalai Tesque), we incubated the membranes with primary antibodies overnight at 4 °C.” for “μg.”

The subject of assay [6] is GL261 cells (intracranial injection). As to the kind of experiment: Murine orthotopic glioblastoma model. It is filed as in vivo, mouse. The following applies: oral 10 and 30 mg/kg for 10 days, 2 weeks after GL261 cell injection. On the procedure:
Murine glioblastoma cell (GL261) transplantation was performed as previously described. Briefly, mice received an intracranial injection of 1 × 10^5 cells in 2 µL of PBS using a Hamilton microliter syringe at the following coordinates: 1 mm anterior, 2 mm lateral (left of middle) to bregma, at a depth of 3 mm from the dural surface. This protocol was completed using a stereotactic frame. In the experiment of the murine orthotopic glioblastoma model, oral administration of each astaxanthin (10 and 30 mg/kg) and adonixanthin (10 and 30 mg/kg) was initiated 3 days after intracranial injection of GL261 cells and was continued for 10 days. In the experiment of the brain tissue absorption with oral astaxanthin or adonixanthin, after one week of adaptation, ICR mice were randomly divided into the following three groups: control group, astaxanthin group (50 mg/kg), and adonixanthin group (50 mg/kg). Mice were orally administered each reagent suspended in olive oil (5 mL/kg) by the daily single dose for 10 days. The control group was treated by olive oil alone (5 mL/kg). Mice were euthanized and […] perfused with cold saline for 2 min at room temperature. […] Pictures were taken using an All-in-One Fluorescence Microscope (BZ-X710; Keyence, Osaka, Japan). We assessed the maximum cross-sectional area of the tumour and tumour volume as described previously.

For `CC1=C(/C=C/C(C)=C/C=C/C(C)=C/C=C/C=C(C)/C=C/C=C(C)/C=C/C2=C(C)C(=O)[C@@H](O)CC2(C)C)C(C)(C)C[C@H](O)C1` [Adonixanthin, adonixanthin], in assay [1], the “concentration above which cell viability was suppressed” value is reported as greater than 0.1 µM. In addition, the “suppression of cell migration” value in assay [2] was found to be 26.32 ± 5.14%. In addition, the “phosphorylation of p38 MAPK” value in assay [3] is “increased”. Moreover, the MMP-2 expression entry in assay [4] is recorded as “decreased”. The “expression of Bcl-2 vs. control” value in assay [5] is reported as “N.S”. Further, the “tumour enlargement (tumour area and volume)” value in assay [6] is on record as “significantly suppressed tumour enlargement”.
Turning to `CC1=C(/C=C/C(C)=C/C=C/C(C)=C/C=C/C=C(C)/C=C/C=C(C)/C=C/C2=C(C)C(=O)[C@@H](O)CC2(C)C)C(C)(C)C[C@H](O)C1=O` [Astaxanthin, astaxanthin], the “concentration above which cell viability was suppressed” value in assay [1] is listed as “more than 5 µM”. Moreover, the “suppression of cell migration” value in assay [2] is listed as 21.15 ± 1.84%. Further, the “phosphorylation of p38 MAPK” value in assay [3] is on record as “increased”. In assay [4], the MMP-2 expression result is listed as “decreased”. In addition, the “expression of Bcl-2 vs. control” value in assay [5] was “N.S”. Moreover, the “tumour enlargement (tumour area and volume)” value in assay [6] is “significantly suppressed tumour enlargement”.

Values taken from publication PMC7551886, “Antitumour Effects of Astaxanthin and Adonixanthin on Glioblastoma” (Marine Drugs, 2020).
